Measurements from US5981698A, “Antimicrobial polypeptides” (CyberChemics, Inc., priority 1997, dated 1999).
Peptide text beside a SMILES is read from it.

Key:
[1] = Solubility (optical density readings); format: physicochemical
Source text: (§1) Table III lists the approximate pharmacokinetics of synthetic peptides described in the present invention which solubilize readily, persist in conformationally active secondary structures in vivo, and induce lysis of representative bacteria, yeast and fungi. These determinations derive from optical density readings (O.D.) and rely on spectrophotometric absorbance from known initial concentrations as reference standards. The optimal therapeutic index for dosage and effective antimicrobial inhibition of a particular polypeptide or salt thereof range between 10-100 and follow routinely without elaborate laboratory determinations by those skilled in the art of pharmacokinetics and metabolic pathways using, for instance, various cytochrome and liver enzymes in vivo.

[2] = Biostability half-life, mammalian; format: in vitro ADME
Source text: as §1

[3] = Biostability half-life, yeast; format: in vitro ADME
Source text: as §1

[4] = Biostability half-life, E. coli; format: in vitro ADME
Source text: as §1

E. coli(25922) = assay: Minimum inhibitory concentration, broth microdilution in Mueller-Hinton media; format: cell-based, Escherichia coli; details: E. coli (ATCC 25922), Gram negative
Source text: (§2) Table III lists the minimum inhibitory concentration (ug/mL) for the various organisms assayed in Mueller-Hinton growth media. Details of the microbiological techniques employed are available to those skilled in the art, for instance from the American Type Tissue Culture Catalog (ATCC, Maryland) or DIFCO Manual, 10th Edition, 1984, pp. 78-80. For instance, a cultured solution of the bacterial strains Escherichia coli (American Tissue Culture Collection, Maryland) ATCC […] and Pseudomonas aeruginosa ATCC 27853 can be tested to model Gram-negative bacteria. Bacteria were grown overnight at 37 C. in Mueller-Hinton broth, reinoculated and incubated at 37 C. to reach the exponential phase of bacterial growth [i.e. a final bacterial suspension cantaining from 100,000 to 500,000 colony-forming units [(CFU)/ml]. In 96 well tissue culture plates, peptides dissolved in distilled water were added to the bacterial suspension at concentrations varying between 1000 to 2 ug/mL derived from serial dilutions, and then incubated overnight at 37 C.

Ps. Aruginosa(13883) = assay: as above; format: cell-based, Pseudomonas aeruginosa; details: Ps. Aruginosa (ATCC 13883), Gram negative
Source text: as §2

Staph aureus(25923) = assay: as above; format: cell-based; details: Staph aureus (ATCC 25923), Gram positive
Source text: as §2

Pichia = assay: Minimum inhibitory concentration, broth microdilution; format: cell-based; details: Yeast Pichia
Source text: as §2

Sac.cerv. = assay: as above; format: cell-based; details: Yeast Sac.cerv.
Source text: as §2

[5] = test system: representative bacteria, yeast and fungi; assay: Antimicrobial action (general statement); format: cell-based
Source text: as §2, with “In 96 well tissue culture plates, peptides dissolved in distilled water were added to the bacterial suspension at concentrations varying between 1000 to 2 ug/mL derived from serial dilutions, and then incubated overnight at 37 C.” left out
Table III lists the approximate pharmacokinetics of synthetic peptides described in the present invention which solubilize readily, persist in conformationally active secondary structures in vivo, and induce lysis of representative bacteria, yeast and fungi. These determinations derive from optical density readings (O.D.) and rely on spectrophotometric absorbance from known initial concentrations as reference standards. […]

| Compound | Solubility [1] | Biostability Half-life Mammalian [2] | Biostability Half-life Yeast [3] | Biostability Half-life E. coli [4] | Minimum Inhibitory Concentration (MIC) (E. coli(25922)) | Minimum Inhibitory Concentration (MIC) (Ps. Aruginosa(13883)) | Minimum Inhibitory Concentration (MIC) (Staph aureus(25923)) | Minimum Inhibitory Concentration (MIC) (Pichia) | Minimum Inhibitory Concentration (MIC) (Sac.cerv.) | solubility relative to B.t. fragment SEQ. 2 ([1]; ratio SEQ. 1 / SEQ. 2) | antimicrobial potency [5] |
| --- | --- | --- | --- | --- | --- | --- | --- | --- | --- | --- | --- |
| CC[C@H](C)[C@H](NC(=O)[C@H](CC(C)C)NC(=O)[C@H](CC(N)=O)NC(=O)[C@H](CCCNC(=N)N)NC(=O)[C@H](CC(C)C)NC(=O)[C@H](CCC(=O)O)NC(=O)[C@H](CO)NC(=O)[C@H](CC(C)C)NC(=O)[C@@H](NC(=O)[C@H](CCCNC(=N)N)NC(=O)[C@H](CCCCN)NC(=O)CNC(=O)[C@@H](NC(=O)[C@H](CC(C)C)NC(=O)[C@H](CO)NC(=O)CNC(=O)[C@@H](N)C(C)C)C(C)C)[C@@H](C)CC)C(N)=O [SEQ. ID 2, VGSLVGKRILSELRNLI] (H-VGSLVGKRILSELRNLI-NH2) | 16.50 ug/100 g | 100.00 h | 20.00 h | 10.00 h |  |  |  |  |  |  |  |
| GIGTLLGKKKTKFLKNILKL [SEQ. ID 1, 20-residue antimicrobial peptide, modified from a Bacillus thuringiensis delta-endotoxin fragment] | 85.09 ug/100 g | 30.00 h | 20.00 h | 10.00 h | 16.00 mg/L | 32.00 mg/L | 63.00 mg/L | 8.00 mg/L | 16.00 mg/L | 5 times | sub-micromolar |
